Measured values published in PMC7265429, “Characterization of a new small-molecule inhibitor of HDAC6 in glioblastoma” (Cell Death & Disease, 2020).

Tested on: GNS166 cells
Test: Microarray whole-transcriptome gene expression analysis
Type: cell-based, human
Method: Whole-transcriptome analysis was performed from 300 ng of RNA using HuGene-2_0-st-v1 expression array (Affymetrix), which covers 48,226 transcripts. Raw data were first checked for quality purposes through the Affymetrix® Expression Console™ Software v1.4.1 and TAC software v4.0. Then, data were normalized using the Robust Multi-array Average (RMA) and analyzed by Limma tool. Probesets with FDR-corrected p-values smaller than 0.05 were selected. Functional enrichment on Gene Ontology (GO) biological processes was performed on a smaller subset of the differentially expressed genes (corrected p-value < 0.001) by means of Broad Institute GSEA. […] The data that support this study have been deposited in NCBI´s Gene Expression Omnibus and are accessible through GEO series accession number GSE143887.

O=C(CCCCCCC(=O)Nc1ccccc1)NO [SAHA, Suberoylanilide hydroxamic acid]
logFC LIPA (5 µM SAHA vs DMSO, transcript TC1000012577.hg.1): 1.686 | logFC ARNTL (5 µM SAHA vs DMSO, transcript TC1100006899.hg.1): 1.497 | logFC C11orf74 (5 µM SAHA vs DMSO, transcript TC1100007307.hg.1): 1.1776 | logFC FAM111B (5 µM SAHA vs DMSO, transcript TC1100007727.hg.1): 1.402 | logFC CYP2R1 (5 µM SAHA vs DMSO, transcript TC1100010185.hg.1): 1.194 | logFC SESN3 (5 µM SAHA vs DMSO, transcript TC1100012019.hg.1): 1.415 | logFC MMP12 (5 µM SAHA vs DMSO, transcript TC1100012134.hg.1): 1.855 | logFC BIRC3 (5 µM SAHA vs DMSO, transcript TC1100013087.hg.1): 2.344 | logFC CCND2 (5 µM SAHA vs DMSO, transcript TC1200006555.hg.1): 1.786 | logFC GPRC5A (5 µM SAHA vs DMSO, transcript TC1200006896.hg.1): 1.771 | logFC STK38L (5 µM SAHA vs DMSO, transcript TC1200007146.hg.1): 1.792 | logFC LRP1 (5 µM SAHA vs DMSO, transcript TC1200007861.hg.1): 1.377 | logFC TCP11L2 (5 µM SAHA vs DMSO, transcript TC1200008726.hg.1): 1.788 | logFC SLC2A3 (5 µM SAHA vs DMSO, transcript TC1200009800.hg.1): 1.712 | logFC ABCD2 (5 µM SAHA vs DMSO, transcript TC1200010413.hg.1): 2.708 | logFC NELL2 (5 µM SAHA vs DMSO, transcript TC1200010490.hg.1): 2.463 | logFC FAIM2 (5 µM SAHA vs DMSO, transcript TC1200010642.hg.1): 1.773 | logFC AGAP2 (5 µM SAHA vs DMSO, transcript TC1200010976.hg.1): 1.559 | logFC KITLG (5 µM SAHA vs DMSO, transcript TC1200011460.hg.1): 1.767 | logFC LUM (5 µM SAHA vs DMSO, transcript TC1200011495.hg.1): 3.868 | logFC FGD6 (5 µM SAHA vs DMSO, transcript TC1200011574.hg.1): 1.639 | logFC MGST1 (5 µM SAHA vs DMSO, transcript TC1200012597.hg.1): 1.82 | logFC CCNA1 (5 µM SAHA vs DMSO, transcript TC1300006879.hg.1): 1.421 | logFC SERTM1 (5 µM SAHA vs DMSO, transcript TC1300006883.hg.1): 2.721 | logFC NDFIP2 (5 µM SAHA vs DMSO, transcript TC1300007592.hg.1): 1.353 | logFC CLDN10 (5 µM SAHA vs DMSO, transcript TC1300007752.hg.1): 1.556 | logFC RAP2A (5 µM SAHA vs DMSO, transcript TC1300007780.hg.1): 1.182 | logFC SLITRK6 (5 µM SAHA vs DMSO, transcript TC1300009394.hg.1): 2.414 | logFC KDELC1 (5 µM SAHA vs DMSO, transcript TC1300009674.hg.1): 1.5525 | logFC HSPA2 (5 µM SAHA vs DMSO, transcript TC1400007443.hg.1): 3.285 | logFC PPP4R4 (5 µM SAHA vs DMSO, transcript TC1400008058.hg.1): 2.48 | logFC TXNDC16 (5 µM SAHA vs DMSO, transcript TC1400009184.hg.1): 1.763 | logFC EGLN3 (5 µM SAHA vs DMSO, transcript TC1400010730.hg.1): 2.2444 | logFC CKMT1B (5 µM SAHA vs DMSO, transcript TC1500007062.hg.1): 2.569 | logFC CKMT1A (5 µM SAHA vs DMSO, transcript TC1500007067.hg.1): 3.452 | logFC IQCH (5 µM SAHA vs DMSO, transcript TC1500007640.hg.1): 1.591 | logFC ARRDC4 (5 µM SAHA vs DMSO, transcript TC1500008470.hg.1): 1.5 | logFC GCOM1 (5 µM SAHA vs DMSO, transcript TC1500010744.hg.1): 1.317 | logFC ATP1B2 (5 µM SAHA vs DMSO, transcript TC1700006763.hg.1): 3.1227 | logFC TMEM107 (5 µM SAHA vs DMSO, transcript TC1700009676.hg.1): 1.351 | logFC CORO6 (5 µM SAHA vs DMSO, transcript TC1700010252.hg.1): 1.546 | logFC C1QL1 (5 µM SAHA vs DMSO, transcript TC1700010856.hg.1): 1.605 | logFC TTLL6 (5 µM SAHA vs DMSO, transcript TC1700011007.hg.1): 1.858 | logFC (5 µM SAHA vs DMSO, transcript TC1700011261.hg.1): 1.393 | logFC TMEM241 (5 µM SAHA vs DMSO, transcript TC1800008281.hg.1): 1.807 | logFC REEP6 (5 µM SAHA vs DMSO, transcript TC1900006537.hg.1): 1.987 | logFC INAFM1 (5 µM SAHA vs DMSO, transcript TC1900008416.hg.1): 2.5078 | logFC PRKCG (5 µM SAHA vs DMSO, transcript TC1900008825.hg.1): 1.503 | logFC RFPL4A (5 µM SAHA vs DMSO, transcript TC1900008931.hg.1): 3.505 | logFC RFPL4AL1 (5 µM SAHA vs DMSO, transcript TC1900008932.hg.1): 2.766 | logFC KCNC3 (5 µM SAHA vs DMSO, transcript TC1900011194.hg.1): 1.754 | logFC FXYD7 (5 µM SAHA vs DMSO, transcript TC1900011710.hg.1): 2.141 | logFC RTBDN (5 µM SAHA vs DMSO, transcript TC1900011892.hg.1): 2.027 | logFC RNF24 (5 µM SAHA vs DMSO, transcript TC2000008242.hg.1): 1.55 | logFC TASP1 (5 µM SAHA vs DMSO, transcript TC2000008436.hg.1): 1.327 | logFC FLRT3 (5 µM SAHA vs DMSO, transcript TC2000008445.hg.1): 2.943 | logFC CYP24A1 (5 µM SAHA vs DMSO, transcript TC2000009522.hg.1): 1.58 | logFC LCA5L (5 µM SAHA vs DMSO, transcript TC2100008171.hg.1): 1.839 | logFC H1F0 (5 µM SAHA vs DMSO, transcript TC2200007318.hg.1): 1.771 | logFC, unannotated transcript (DMSO vs SAHA, downregulated, transcript 23064072): -1.45 | logFC, unannotated transcript (DMSO vs SAHA, downregulated, transcript 23064958): -1.242 | logFC, unannotated transcript (DMSO vs SAHA, downregulated, transcript 23066344): -2.142 | logFC, unannotated transcript (DMSO vs SAHA, downregulated, transcript 23066350): -1.951 | logFC, unannotated transcript (DMSO vs SAHA, downregulated, transcript 23066369): -2.142 | logFC, unannotated transcript (DMSO vs SAHA, downregulated, transcript 23066376): -1.488 | logFC, unannotated transcript (DMSO vs SAHA, downregulated, transcript 23066377): -1.951 | logFC, unannotated transcript (DMSO vs SAHA, downregulated, transcript 23068519): -1.54 | logFC, unannotated transcript (DMSO vs SAHA, downregulated, transcript 23071518): -1.2407 | logFC, unannotated transcript (DMSO vs SAHA, downregulated, transcript 23074026): -1.4 | logFC, unannotated transcript (DMSO vs SAHA, downregulated, transcript 23074907): -1.601 | logFC, unannotated transcript (DMSO vs SAHA, downregulated, transcript 23075457): -1.338 | logFC, unannotated transcript (DMSO vs SAHA, downregulated, transcript 23075879): -1.002 | logFC, unannotated transcript (DMSO vs SAHA, downregulated, transcript 23076022): -1.002 | logFC, unannotated transcript (DMSO vs SAHA, downregulated, transcript 23076173): -1.06 | logFC, unannotated transcript (DMSO vs SAHA, downregulated, transcript HTA2-pos-3662482_st): -0.977 | logFC, unannotated transcript (DMSO vs SAHA, downregulated, transcript HTA2-pos-3671550_st): -1.877 | logFC, unannotated transcript (DMSO vs SAHA, downregulated, transcript HTA2-pos-3671554_st): -1.443 | logFC, unannotated transcript (DMSO vs SAHA, downregulated, transcript HTA2-pos-PSR17008077.hg.1): -1.062 | logFC, unannotated transcript (DMSO vs SAHA, downregulated, transcript HTA2-pos-PSR17008082.hg.1): -1.0258 | logFC, unannotated transcript (DMSO vs SAHA, downregulated, transcript HTA2-pos-PSR17013958.hg.1): -1.428 | logFC ARAF (DMSO vs SAHA, downregulated, transcript TC0X00007148.hg.1): -1.073 | logFC RBM3 (DMSO vs SAHA, downregulated, transcript TC0X00007195.hg.1): -1.375 | logFC SUV39H1 (DMSO vs SAHA, downregulated, transcript TC0X00007200.hg.1): -1.395 | logFC PLP2 (DMSO vs SAHA, downregulated, transcript TC0X00007222.hg.1): -1.034 | logFC PBDC1 (DMSO vs SAHA, downregulated, transcript TC0X00007686.hg.1): -1.452 | logFC MID2 (DMSO vs SAHA, downregulated, transcript TC0X00008078.hg.1): -1.792 | logFC HMGB3 (DMSO vs SAHA, downregulated, transcript TC0X00008724.hg.1): -1.132 | logFC TAF9B (DMSO vs SAHA, downregulated, transcript TC0X00010136.hg.1): -1.5452 | logFC STS (DMSO vs SAHA, downregulated, transcript TC0X00011259.hg.1): -1.335
